Measured values: ChEMBL document CHEMBL1154755, “Discovery of 6alpha-ethyl-23(S)-methylcholic acid (S-EMCA, INT-777) as a potent and selective agonist for the TGR5 receptor, a novel target for diabesity” (J Med Chem, 2009)

How the values were obtained:
[1] = Metabolic stability in bile fistula rat model assessed as intact drug level recovered in bile at 1 umol/min/kg administered intraduodenally over 1 hr; format: ADME; conditions: in vivo, other
[2] = Metabolic stability in bile fistula rat model assessed as intact drug level recovered in bile at 1 umol/min/kg, iv over 1 hr; format: ADME, organism-based; conditions: in vivo
[3] = Metabolic stability in human stool broth culture assessed as unmodified drug level after 12 hrs; format: ADME; conditions: read-out: Stability

Compound | Stability [1] [%Idose] | Stability [2] [%Idose] | remaining at 12 h [3] [%]
C[C@H](CCC(=O)O)[C@H]1CC[C@H]2[C@@H]3[C@H](O)C[C@@H]4C[C@H](O)CC[C@]4(C)[C@H]3C[C@H](O)[C@]12C [CHOLIC ACID] | 12 | 8 | 
CC[C@H]1[C@@H](O)[C@@H]2[C@H](C[C@H](O)[C@]3(C)[C@@H]([C@H](C)C[C@H](C)C(=O)O)CC[C@@H]23)[C@@]2(C)CC[C@@H](O)C[C@@H]12 | 94 | 93 | > 95
C[C@H](CCC(=O)O)[C@H]1CC[C@H]2[C@@H]3[C@H](O)C[C@@H]4C[C@H](O)CC[C@]4(C)[C@H]3CC[C@]12C [CHENODIOL] | 3 | 4 | 
CC[C@H]1[C@@H](O)[C@@H]2[C@H](C[C@H](O)[C@]3(C)[C@@H]([C@H](C)C[C@@H](C)C(=O)O)CC[C@@H]23)[C@@]2(C)CC[C@@H](O)C[C@@H]12 | 68 | 65 | 
